In patent US20220160762A1, “ENGINEERED IMMUNE CELLS” (NATIONAL UNIVERSITY OF SINGAPORE, priority 2019, published 2022):

Key:
TCR-Jurkat = experiment: T cell stimulation assay with kinase inhibitor, IL-2 ELISA readout; assay type: cell-based; settings: Homo sapiens, TCR-Jurkat stimulated with CHO-L2, 18 hrs, read-out: IC50 of inhibitor on IL-2 production
Method: (§1) Artificial antigen presenting CHO cells (APC-CHO) were seeded onto a 96 well flat plate at 2-3×10^4 per well one day before. For APC-CHO requiring peptide pulsing, peptide was added at 4 uM for 3 hrs, and then washed away before CAR-T or TCR-T cells were added. Each CAR-T cell or TCR T cell sample was counted and suspended at a concentration of 10^6 per ml in culturing RPMI medium. 200 ul per well of suspended cell solution was then added into APC-CHO pre-seeded plate. For inhibitor experiments, inhibitor was added accordingly into the cell mixture. Technical triplicates were performed for all experiments. The cells were incubated at 37° C., 5% CO2 for 18 hrs. After incubation, supernatant was collected for human IL-2 ELISA assay, which was performed according to the manufacturer's protocol (Invitrogen). The T cell pellets were resuspended for surface staining or used for another round of stimulation by repeating the method described above.

CAR-Jurkat = experiment: as above; assay type: cell-based, human; settings: for IC50: Homo sapiens, T-cell, CAR-Jurkat stimulated with CHO-L2, 18 hrs, read-out: IC50 of inhibitor on IL-2 production
Method: as §1

CAR-Jcam = experiment: T cell stimulation assay with SFK inhibitor, IL-2 ELISA readout; assay type: cell-based, human; settings: CAR-Jcam (LCK-deficient)
Method: as §1

SMILES	IC50 (TCR-Jurkat)	IC50 (CAR-Jurkat)	IL-2 production after inhibitor was added (CAR-Jurkat; CAR-Jurkat)	IL-2 production after inhibitor was added (CAR-Jcam)
CN(C)S(=O)(=O)c1ccc2c(c1)/C(=C/c1cc3c([nH]1)CCCC3)C(=O)N2 [SU6656]	5.58 µM	3.77 µM	–	–
COc1cc(-c2nn([C@H]3CC[C@H](N4CCN(C(C)=O)CC4)CC3)c3ncnc(N)c23)ccc1NC(=O)c1cc2ccccc2n1C [A770041]	0.0066 µM	0.047 µM	–	–
CC(C)(C)n1nc(-c2ccc(Cl)cc2)c2c(N)ncnc21 [PP2]	–	–	entirely quenched	entirely quenched
